Source: patent publication US11739100B2, “2,3-dihydro-1h-imidazo{1,2-a}pyrimidin-5-one and this 1,2,3,4-tetrahydropyrimido{1,2-a}pyrimidin-6-one derivatives comprising a substituted morpholine, preparation thereof and pharmaceutical use thereof” (SANOFI, priority 2012, dated 2023)

Target: T1, recombinant Vps34 (Homo sapiens, UniProt Q8NEB9)
T1 construct: purchased Invitrogen PV5126
Test: Phosphorylation of phosphatidylinositol (PI) by Vps34 in vitro, ADP detected by TR-FRET (HTRF Transcreener ADP)
Type: biochemical
Conditions: 10 μM ATP, 55 μg/ml PI, approximately 3 nM Vps34, 1 hour at ambient temperature; absolute IC50, mean of two independent experiments; read-out: IC50 activity range

T1 sequence (Q8NEB9 whole entry): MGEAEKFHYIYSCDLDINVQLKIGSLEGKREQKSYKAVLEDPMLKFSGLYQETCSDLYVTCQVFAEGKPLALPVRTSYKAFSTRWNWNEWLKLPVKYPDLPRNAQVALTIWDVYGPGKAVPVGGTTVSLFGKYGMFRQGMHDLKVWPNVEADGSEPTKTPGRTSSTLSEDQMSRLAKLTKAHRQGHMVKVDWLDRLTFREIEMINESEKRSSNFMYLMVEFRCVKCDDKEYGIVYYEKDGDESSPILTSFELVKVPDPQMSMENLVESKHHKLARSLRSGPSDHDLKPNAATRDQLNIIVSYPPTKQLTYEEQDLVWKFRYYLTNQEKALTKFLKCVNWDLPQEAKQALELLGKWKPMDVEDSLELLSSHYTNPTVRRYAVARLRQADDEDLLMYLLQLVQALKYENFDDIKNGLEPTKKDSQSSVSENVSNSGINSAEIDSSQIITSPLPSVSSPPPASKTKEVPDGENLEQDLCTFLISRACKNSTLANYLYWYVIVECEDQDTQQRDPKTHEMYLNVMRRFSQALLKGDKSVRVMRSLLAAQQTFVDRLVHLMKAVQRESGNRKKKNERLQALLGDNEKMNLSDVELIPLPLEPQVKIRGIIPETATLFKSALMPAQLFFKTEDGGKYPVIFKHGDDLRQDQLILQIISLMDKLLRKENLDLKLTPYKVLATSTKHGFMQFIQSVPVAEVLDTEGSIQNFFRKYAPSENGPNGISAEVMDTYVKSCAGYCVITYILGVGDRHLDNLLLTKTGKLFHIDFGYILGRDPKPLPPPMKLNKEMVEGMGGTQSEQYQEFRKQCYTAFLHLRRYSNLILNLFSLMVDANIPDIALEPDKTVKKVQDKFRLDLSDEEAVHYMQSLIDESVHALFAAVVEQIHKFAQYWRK

Structure (SMILES)	IC50
C[C@@H]1COCCN1c1cc(=O)n2c(n1)N(c1cccc(F)c1)[C@H](C(F)(F)F)CC2 [Example 75, (S)-9-(3-Fluoro-phenyl)-2-((R)-3-methylmorpholin-4-yl)-8-trifluoromethyl-6,7,8,9-tetrahydro-pyrimido[1,2-a]-pyrimidin-4-one]	< 10 nM
C[C@@H]1COCCN1c1cc(=O)n2c(n1)N(CC(=O)c1cccnc1)[C@H](C(F)(F)F)CC2 [Example 11, (S)-2-((R)-3-Methyl-morpholin-4-yl)-9-(2-oxo-2-pyridin-3-yl-ethyl)-8-trifluoromethyl-6,7,8,9-tetrahydro-pyrimido[1,2-a]-pyrimidin-4-one]	< 10 nM
C[C@@H]1COCCN1c1nc2n(c(=O)c1F)CC[C@@H](C(F)(F)F)N2c1cccnc1 [Example 47, (S)-3-Fluoro-2-((R)-3-methylmorpholin-4-yl)-9-pyridin-3-yl-8-trifluoromethyl-6,7,8,9-tetrahydro-pyrimido[1,2-a]-pyrimidin-4-one]	10 to 100 nM
O=C(CN1c2nc(N3CC4CCC(C3)O4)cc(=O)n2CC[C@H]1C(F)(F)F)C1CC1 [Example 271, (S)-9-(2-Cyclopropyl-2-oxoethyl)-2-(8-oxa-3-azabicyclo[3.2.1]oct-3-yl)-8-trifluoromethyl-6,7,8,9-tetrahydro-pyrimido[1,2-a]-pyrimidin-4-one]	10 to 100 nM
CC(C)c1nc(CN2c3nc(N4CCOC[C@H]4C)c(F)c(=O)n3CC[C@H]2C(F)(F)F)no1 [Example 246, (S)-3-Fluoro-9-(5-isopropyl-[1,2,4]oxadiazol-3-yl-methyl)-2-((R)-3-methylmorpholin-4-yl)-8-trifluoromethyl-6,7,8,9-tetrahydro-pyrimido[1,2-a]-pyrimidin-4-one]	< 10 nM
Cc1nc(CN2CC[C@H](C(F)(F)F)n3c2nc(N2CCOC[C@H]2C)cc3=O)no1 [Example 27, (R)-2-((R)-3-Methyl-morpholin-4-yl)-9-(5-methyl-[1,2,4]oxadiazol-3-yl-methyl)-6-trifluoromethyl-6,7,8,9-tetrahydro-pyrimido[1,2-a]-pyrimidin-4-one]	< 10 nM
CO[C@H](CN1c2nc(N3CCOC[C@H]3C)cc(=O)n2CC[C@H]1C(F)(F)F)c1ccccc1 [Example 100, (S)-9-((S)-2-Methoxy-2-phenylethyl)-2-((R)-3-methylmorpholin-4-yl)-8-trifluoromethyl-6,7,8,9-tetrahydro-pyrimido[1,2-a]-pyrimidin-4-one]	< 10 nM
O=c1cc(N2CC3CCC(C2)O3)nc2n1CC[C@@H](C(F)(F)F)N2Cc1ccc(Cl)nc1 [Example 168, (S)-9-(6-Chloro-pyridin-3-ylmethyl)-2-(8-oxa-3-aza-bicyclo[3.2.1]oct-3-yl)-8-trifluoromethyl-6,7,8,9-tetrahydro-pyrimido[1,2-a]-pyrimidin-4-one]	10 to 100 nM
C[C@@H]1COCCN1c1cc(=O)n2c(n1)N(Cc1ncco1)[C@](C)(C(F)(F)F)CC2 [Example 239, (S)-8-Methyl-2-((R)-3-methylmorpholin-4-yl)-9-oxazol-2-ylmethyl-8-trifluoromethyl-6,7,8,9-tetrahydro-pyrimido[1,2-a]-pyrimidin-4-one]	< 10 nM
C[C@@H]1COCCN1c1cc(=O)n2c(n1)N(CC(=O)C1CCOCC1)[C@H](C(F)(F)F)CC2 [Example 245, (S)-2-((R)-3-Methyl-morpholin-4-yl)-9-[2-oxo-2-(tetrahydro-pyran-4-yl)ethyl]-8-trifluoromethyl-6,7,8,9-tetrahydro-pyrimido[1,2-a]-pyrimidin-4-one]	< 10 nM
C[C@@H]1COCCN1c1cc(=O)n2c(n1)N(Cc1ccc(Cl)nc1)CC[C@@H]2C(F)(F)F [Example 115, (R)-9-(6-Chloro-pyridin-3-ylmethyl)-2-((R)-3-methyl-morpholin-4-yl)-6-trifluoromethyl-6,7,8,9-tetrahydro-pyrimido[1,2-a]-pyrimidin-4-one]	< 10 nM
C[C@@H]1COCCN1c1cc(=O)n2c(n1)N(CC(O)c1ccccn1)[C@H](C(F)(F)F)CC2 (stereo partly drawn) [Example 213, (S)-9-(2-Hydroxy-2-pyridin-2-ylethyl)-2-((R)-3-methyl-morpholin-4-yl)-8-trifluoromethyl-6,7,8,9-tetrahydro-pyrimido[1,2-a]-pyrimidin-4-one]	< 10 nM
C[C@@H]1COC[C@@H](C)N1c1cc(=O)n2c(n1)N(Cc1ccon1)[C@H](C(F)(F)F)CC2 [Example 313, (S)-2-((3R,5R)-3,5-Dimethylmorpholin-4-yl)-9-isoxazol-3-yl-methyl-8-trifluoromethyl-6,7,8,9-tetrahydropyrimido-[1,2-a]pyrimidin-4-one]	< 10 nM
C[C@@H]1COCCN1c1nc2n(c(=O)c1F)[C@@H](C(F)(F)F)CCN2CC(=O)C1CCOCC1 [Example 132, (R)-3-Fluoro-2-((R)-3-methylmorpholin-4-yl)-9-[2-oxo-2-(tetrahydro-pyran-4-yl)ethyl]-6-trifluoromethyl-6,7,8,9-tetrahydro-pyrimido[1,2-a]-pyrimidin-4-one]	< 10 nM
CC1(C)COCCN1c1cc(=O)n2c(n1)N(CC(=O)c1ccccc1)[C@H](C(F)(F)F)CC2 [Example 150, (S)-2-(3,3-Dimethyl-morpholin-4-yl)-9-(2-oxo-2-phenylethyl)-8-trifluoromethyl-6,7,8,9-tetrahydro-pyrimido[1,2-a]-pyrimidin-4-one]	10 to 100 nM
C[C@@H]1COCCN1c1cc(=O)n2c(n1)N(Cc1ccc(F)cn1)[C@H](C(F)(F)F)CC2 [Example 92, (S)-9-(5-Fluoropyridin-2-ylmethyl)-2-((R)-3-methylmorpholin-4-yl)-8-trifluoromethyl-6,7,8,9-tetrahydro-pyrimido[1,2-a]-pyrimidin-4-one]	< 10 nM
C[C@@H]1COCCN1c1cc(=O)n2c(n1)N(CC(=O)C1CCOCC1)CC[C@@H]2C(F)(F)F [Example 131, (R)-2-((R)-3-Methyl-morpholin-4-yl)-9-[2-oxo-2-(tetrahydro-pyran-4-yl)ethyl]-6-trifluoromethyl-6,7,8,9-tetrahydro-pyrimido[1,2-a]-pyrimidin-4-one]	< 10 nM
C[C@@H]1COCCN1c1cc(=O)n2c(n1)N(Cc1cccc(F)n1)[C@H](C(F)(F)F)CC2 [Example 224, (S)-9-(6-Fluoropyridin-2-ylmethyl)-2-((R)-3-methylmorpholin-4-yl)-8-trifluoromethyl-6,7,8,9-tetrahydro-pyrimido[1,2-a]-pyrimidin-4-one]	< 10 nM
COc1cc(C(=O)CN2c3nc(N4CCOC[C@H]4C)cc(=O)n3CC[C@H]2C(F)(F)F)ccn1 [Example 61, (S)-9-[2-(2-Methoxy-pyridin-4-yl)-2-oxo-ethyl]-2-((R)-3-methyl-morpholin-4-yl)-8-trifluoromethyl-6,7,8,9-tetrahydro-pyrimido[1,2-a]-pyrimidin-4-one]	< 10 nM
C[C@@H]1COCCN1c1cc(=O)n2c(n1)N(CC(=O)C1(C)CCOCC1)[C@H](C(F)(F)F)CC2 [Example 310, (S)-2-((R)-3-Methyl-morpholin-4-yl)-9-[2-(4-methyl-tetrahydro-pyran-4-yl)-2-oxo-ethyl]-8-trifluoromethyl-6,7,8,9-tetrahydro-pyrimido[1,2-a]-pyrimidin-4-one]	< 10 nM
Cc1noc(CN2c3nc(N4CCOC[C@H]4C)c(F)c(=O)n3C[C@@]2(C)C(F)(F)F)n1 [Example 207, (S)-6-Fluoro-2-methyl-7-((R)-3-methyl-morpholin-4-yl)-1-(3-methyl-[1,2,4]oxadiazol-5-yl-methyl)-2-trifluoromethyl-2,3-dihydro-1H-imidazo[1,2-a]-pyrimidin-5-one]	< 10 nM
C[C@@H]1COCCN1c1cc(=O)n2c(n1)N(CC(=O)c1cccnc1)[C@](C)(C(F)(F)F)C2 [Example 180, (S)-2-Methyl-7-((R)-3-methylmorpholin-4-yl)-1-(2-oxo-2-pyridin-3-ylethyl)-2-trifluoromethyl-2,3-dihydro-1H-imidazo[1,2-a]-pyrimidin-5-one]	< 10 nM
CC(C)Oc1ccc(N2CC[C@H](C(F)(F)F)n3c2nc(N2CCOC[C@H]2C)cc3=O)cn1 [Example 116, (R)-9-(6-Isopropoxy-pyridin-3-yl)-2-((R)-3-methylmorpholin-4-yl)-6-trifluoromethyl-6,7,8,9-tetrahydro-pyrimido[1,2-a]-pyrimidin-4-one]	< 10 nM
C[C@@H]1COCCN1c1cc(=O)n2c(n1)N(Cc1nc(C(C)(C)C)no1)[C@H](C(F)(F)F)CC2 [Example 228, (S)-9-(3-tert-Butyl-[1,2,4]oxadiazol-5-yl-methyl)-2-((R)-3-methylmorpholin-4-yl)-8-trifluoromethyl-6,7,8,9-tetrahydro-pyrimido[1,2-a]-pyrimidin-4-one]	< 10 nM
CON(C)C(=O)CN1c2nc(N3CCOC[C@H]3C)cc(=O)n2CC[C@H]1C(F)(F)F [Example 196, N-Methoxy-N-methyl-2-[(S)-8-((R)-3-methyl-morpholin-4-yl)-6-oxo-2-trifluoromethyl-3,4-dihydro-2H,6H-pyrimido[1,2-a]-pyrimidin-1-yl]-acetamide]	< 10 nM
O=c1cc(N2CC3CCC(C2)O3)nc2n1CC[C@@H](C(F)(F)F)N2Cc1ccnn1C(F)F [Example 166, (S)-9-(2-Difluoromethyl-2H-pyrazol-3-ylmethyl)-2-(8-oxa-3-aza-bicyclo[3.2.1]oct-3-yl)-8-trifluoromethyl-6,7,8,9-tetrahydro-pyrimido[1,2-a]-pyrimidin-4-one]	10 to 100 nM
C[C@@H]1COCCN1c1nc2n(c(=O)c1F)CC[C@@H](C(F)(F)F)N2CCOCC(F)(F)F [Example 48, (S)-3-Fluoro-2-((R)-3-methylmorpholin-4-yl)-9-[2-(2,2,2-trifluoro-ethoxy)ethyl]-8-trifluoromethyl-6,7,8,9-tetrahydro-pyrimido[1,2-a]-pyrimidin-4-one]	< 10 nM
C[C@@H]1COC[C@@H](C)N1c1cc(=O)n2c(n1)N(Cc1ccno1)[C@H](C(F)(F)F)CC2 [Example 9, (S)-2-((3R,5R)-3,5-Dimethylmorpholin-4-yl)-9-isoxazol-5-yl-methyl-8-trifluoromethyl-6,7,8,9-tetrahydro-pyrimido[1,2-a]-pyrimidin-4-one]	< 10 nM
